# From PubChem BioAssay (NCI)
#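 Exposure lasted 48 hours, with cells grown in 96-well plates and compounds tested at five concentrations. GI50: concentration for 50% inhibition of growth. The concentration for full growth arrest is given as TGI.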
# How the values were obtained:
# Test in all cases: growth of human tumour cells (NCI), 48 h
# K-562 leukemia = tested on: K-562 leukemia
# MCF7 breast = tested on: MCF7 breast
# TK-10 renal = tested on: TK-10 renal
# SR leukemia = tested on: SR leukemia
# SK-MEL-5 melanoma = tested on: SK-MEL-5 melanoma
# T-47D breast = tested on: T-47D breast
# BT-549 breast = tested on: BT-549 breast
# A549 NSCLC = tested on: A549 NSCLC
# SNB-75 CNS = tested on: SNB-75 CNS
# HOP-62 NSCLC = tested on: HOP-62 NSCLC
# IGROV1 ovarian = tested on: IGROV1 ovarian
# NCI-H226 lung = tested on: NCI-H226 lung
# HCT-15 colon = tested on: HCT-15 colon
# KM12 colon = tested on: KM12 colon
# NCI-H23 lung = tested on: NCI-H23 lung
# U251 CNS = tested on: U251 CNS
# SF-268 CNS = tested on: SF-268 CNS
# SK-OV-3 ovarian = tested on: SK-OV-3 ovarian
# SK-MEL-28 melanoma = tested on: SK-MEL-28 melanoma
# SF-539 CNS = tested on: SF-539 CNS
# CAKI-1 renal = tested on: CAKI-1 renal
# A498 renal = tested on: A498 renal
# UACC-62 melanoma = tested on: UACC-62 melanoma
# NCI/ADR-RES ovarian = tested on: NCI/ADR-RES ovarian
# UO-31 renal = tested on: UO-31 renal
# SW-620 colon = tested on: SW-620 colon
# OVCAR-8 ovarian = tested on: OVCAR-8 ovarian
# EKVX NSCLC = tested on: EKVX NSCLC
# HT29 colon = tested on: HT29 colon
# M14 melanoma = tested on: M14 melanoma
# COLO 205 colon = tested on: COLO 205 colon
# UACC-257 melanoma = tested on: UACC-257 melanoma
# MDA-MB-435 = tested on: MDA-MB-435
# SF-295 CNS = tested on: SF-295 CNS
# MDA-MB-231 breast = tested on: MDA-MB-231 breast
# HOP-92 NSCLC = tested on: HOP-92 NSCLC
# OVCAR-5 ovarian = tested on: OVCAR-5 ovarian
# 786-0 renal = tested on: 786-0 renal
# LOX IMVI melanoma = tested on: LOX IMVI melanoma
# CCRF-CEM leukemia = tested on: CCRF-CEM leukemia
# HCT-116 colon = tested on: HCT-116 colon
# NCI-H460 lung = tested on: NCI-H460 lung
# NCI-H522 lung = tested on: NCI-H522 lung
# HCC-2998 colon = tested on: HCC-2998 colon
# ACHN renal = tested on: ACHN renal
# DU-145 prostate = tested on: DU-145 prostate
# MALME-3M melanoma = tested on: MALME-3M melanoma
# HL-60(TB) leukemia = tested on: HL-60(TB) leukemia
# HS 578T breast = tested on: HS 578T breast
# OVCAR-4 ovarian = tested on: OVCAR-4 ovarian
# PC-3 prostate = tested on: PC-3 prostate
# MOLT-4 leukemia = tested on: MOLT-4 leukemia
# OVCAR-3 ovarian = tested on: OVCAR-3 ovarian
# SN12C renal = tested on: SN12C renal
# SNB-19 CNS = tested on: SNB-19 CNS
# RPMI-8226 leukemia = tested on: RPMI-8226 leukemia
# SK-MEL-2 melanoma = tested on: SK-MEL-2 melanoma
structure (smiles),measurement,setting,value
COc1ccc(CC(C)=C(c2ccc(OCCN3CCCC3)cc2)c2ccc(OCCN3CCCC3)cc2)cc1,GI50,K-562 leukemia,0.497 µM
same,TGI,K-562 leukemia,1.28 µM
same,GI50,MCF7 breast,0.841 µM
same,TGI,MCF7 breast,3.2 µM
same,GI50,TK-10 renal,3.66 µM
same,TGI,TK-10 renal,7.28 µM
same,GI50,SR leukemia,0.483 µM
same,TGI,SR leukemia,1.3 µM
same,GI50,SK-MEL-5 melanoma,3.81 µM
same,TGI,SK-MEL-5 melanoma,7.05 µM
same,GI50,T-47D breast,3.13 µM
same,TGI,T-47D breast,7.61 µM
same,GI50,BT-549 breast,3.04 µM
same,TGI,BT-549 breast,6.35 µM
same,GI50,A549 NSCLC,3.1 µM
same,TGI,A549 NSCLC,7.39 µM
same,GI50,SNB-75 CNS,2.69 µM
same,TGI,SNB-75 CNS,5.74 µM
same,GI50,HOP-62 NSCLC,3.74 µM
same,TGI,HOP-62 NSCLC,7.93 µM
same,GI50,IGROV1 ovarian,3.78 µM
same,TGI,IGROV1 ovarian,7.16 µM
same,GI50,NCI-H226 lung,3.2 µM
same,TGI,NCI-H226 lung,6.63 µM
same,GI50,HCT-15 colon,1.28 µM
same,TGI,HCT-15 colon,4.36 µM
same,GI50,KM12 colon,3.49 µM
same,TGI,KM12 colon,6.77 µM
same,GI50,NCI-H23 lung,3.49 µM
same,TGI,NCI-H23 lung,6.76 µM
same,GI50,U251 CNS,1.81 µM
same,TGI,U251 CNS,5.47 µM
same,GI50,SF-268 CNS,3.24 µM
same,TGI,SF-268 CNS,6.7 µM
same,GI50,SK-OV-3 ovarian,4.19 µM
same,TGI,SK-OV-3 ovarian,7.93 µM
same,GI50,SK-MEL-28 melanoma,3.6 µM
same,TGI,SK-MEL-28 melanoma,6.83 µM
same,GI50,SF-539 CNS,3.59 µM
same,TGI,SF-539 CNS,6.84 µM
same,GI50,CAKI-1 renal,4 µM
same,TGI,CAKI-1 renal,7.31 µM
same,GI50,A498 renal,3.01 µM
same,TGI,A498 renal,6.28 µM
same,GI50,UACC-62 melanoma,4.02 µM
same,TGI,UACC-62 melanoma,7.4 µM
same,GI50,NCI/ADR-RES ovarian,3.7 µM
same,TGI,NCI/ADR-RES ovarian,7.08 µM
same,GI50,UO-31 renal,2.79 µM
same,TGI,UO-31 renal,5.75 µM
same,GI50,SW-620 colon,2.23 µM
same,TGI,SW-620 colon,5.25 µM
same,GI50,OVCAR-8 ovarian,3.64 µM
same,TGI,OVCAR-8 ovarian,7.29 µM
same,GI50,EKVX NSCLC,3.68 µM
same,TGI,EKVX NSCLC,7.02 µM
same,GI50,HT29 colon,0.84 µM
same,TGI,HT29 colon,3.31 µM
same,GI50,M14 melanoma,0.722 µM
same,TGI,M14 melanoma,2.5 µM
same,GI50,COLO 205 colon,0.904 µM
same,TGI,COLO 205 colon,4.55 µM
same,GI50,UACC-257 melanoma,3.95 µM
same,TGI,UACC-257 melanoma,7.59 µM
same,GI50,MDA-MB-435,0.721 µM
same,TGI,MDA-MB-435,2.57 µM
same,GI50,SF-295 CNS,4 µM
same,TGI,SF-295 CNS,7.38 µM
same,GI50,MDA-MB-231 breast,3.25 µM
same,TGI,MDA-MB-231 breast,6.44 µM
same,GI50,HOP-92 NSCLC,0.773 µM
same,TGI,HOP-92 NSCLC,3.92 µM
same,GI50,OVCAR-5 ovarian,3.49 µM
same,TGI,OVCAR-5 ovarian,6.68 µM
same,GI50,786-0 renal,2.78 µM
same,TGI,786-0 renal,6.05 µM
same,GI50,LOX IMVI melanoma,1.07 µM
same,TGI,LOX IMVI melanoma,3.94 µM
same,GI50,CCRF-CEM leukemia,3.97 µM
same,TGI,CCRF-CEM leukemia,11.9 µM
same,GI50,HCT-116 colon,1.76 µM
same,TGI,HCT-116 colon,5.25 µM
same,GI50,NCI-H460 lung,3.15 µM
same,TGI,NCI-H460 lung,6.45 µM
same,GI50,NCI-H522 lung,3.63 µM
same,TGI,NCI-H522 lung,7.6 µM
same,GI50,HCC-2998 colon,2.46 µM
same,TGI,HCC-2998 colon,5.38 µM
same,GI50,ACHN renal,3.36 µM
same,TGI,ACHN renal,6.48 µM
same,GI50,DU-145 prostate,3.32 µM
same,TGI,DU-145 prostate,6.43 µM
same,GI50,MALME-3M melanoma,3.57 µM
same,TGI,MALME-3M melanoma,6.81 µM
same,GI50,HL-60(TB) leukemia,4.14 µM
same,TGI,HL-60(TB) leukemia,8.53 µM
same,GI50,HS 578T breast,2.99 µM
same,TGI,HS 578T breast,7.17 µM
same,GI50,OVCAR-4 ovarian,3.39 µM
same,TGI,OVCAR-4 ovarian,6.9 µM
same,GI50,PC-3 prostate,2.99 µM
same,TGI,PC-3 prostate,7.25 µM
same,GI50,MOLT-4 leukemia,2.07 µM
same,TGI,MOLT-4 leukemia,5.96 µM
same,GI50,OVCAR-3 ovarian,2.68 µM
same,TGI,OVCAR-3 ovarian,5.59 µM
same,GI50,SN12C renal,3.49 µM
same,TGI,SN12C renal,6.74 µM
same,GI50,SNB-19 CNS,3.93 µM
same,TGI,SNB-19 CNS,7.32 µM
same,GI50,RPMI-8226 leukemia,2.12 µM
same,TGI,RPMI-8226 leukemia,9.37 µM
same,GI50,SK-MEL-2 melanoma,3.68 µM
same,TGI,SK-MEL-2 melanoma,6.97 µM
